Reference: patent US11795144B2, “Inhibitors of RAC1 and uses thereof for treating cancers” (INSTITUT NATIONAL DE LA SANTE ET DE LA RECHERCHE MEDICALE …, priority 2017, dated 2023)
Entries after “also recorded” stand apart in the source; their conditions may differ.

Tests used:
3T3 cells = assay: Unidirectional cell migration (cell speed); type: cell-based
From the text: (§1) Percentages of cells with ruffles were quantified (right panel). Results shown are representative of 3 independent experiments. […] Left panel, representative records with arrows indicating the cell location at different times. Right panel, quantification of cell speed in each experimental conditions. Results shown are representative of 2 independent experiments. […] Lower panel, quantification of cell adhesion. Results shown are representative of 3 independent experiments.
Cells (1000/well) were seeded in a 96 well plate with […] fibronectin stripes (CytooPlates Motility, CYTOO) in medium with 1% SVF and allowed to spread for 4 hours before capturing time-lapse images for 24 hours (image/10 minutes) on a Widefield Leica DMI 6000B drove with Metamorph software. Cells speed was measured with ImageJ software.

[1] = tested on: primary fibroblasts from human breast cancer; assay: Invasion in 3D gel of primary fibroblasts from breast cancer; type: cell-based; details: 10 μM, after 48 h
Procedure: (§2) FIG. 4 relates to the inhibition of the Rac-dependent cell functions involved in cancer cells by (2). FIG. 4A: Breast cancer cell line MDA-MB-468 and primary human fibroblast from breast cancer tumors were seeded in 3D-gel containing or not (2). […] FIG. 4B: Effect of (2) on foci assay.
(§3) To confirm this hypothesis, cancer cells invasion was analyzed in 3D gel. The breast cancer cell line MDA-MB-468 or primary fibroblasts from human breast cancer were seeded in gels containing or not (2) (10 μM).

[2] = Pharmacokinetics after intraperitoneal injection; type: in vivo, male C57BL6 adult mice; details: male, C57BL6, mouse, plasma; IP route, mice
Procedure: FIG. 5 relates to the pharmacokinetics of compound (2) by analyzing kidney, brain, liver, heart, plasma samples, and lungs from male C57BL6 adult mice after intraperitonal injection. The curves of this Figure represent the concentration in μg/g over time in minutes.
(§4) To test whether compound (2) would have an acceptable therapeutic index in vivo, the pharmacokinetics of compound (2) were measured by analyzing plasma samples, brain, heart, kidney, liver and lungs from male C57BL6 adult mice after intraperitonal injection (IP) (FIG. 5). In addition, we evaluated the effect of chronic (daily during 4 weeks) IP injections of compound (2) on physiological parameters: body weight, glycemia, hepatic and renal functions (FIGS. 6 to 8).

[3] = tested on: MDA-MB-468 (Luciferase+) cell line; assay: Metastasis in xenograft mouse tumor model; type: in vivo, NMRI mice; details: 25 mg/kg/d IP during 4 weeks after exeresis of primary tumor
Procedure: FIG. 9 relates to the in vivo efficiency of compound (2) to inhibit metastasis in a xenograft mouse tumor model using MDA-MB-468 (Luciferase+) cell line in 5-week-old NMRI mice.
The in vivo efficiency of compound (2) to inhibit metastasis was evaluated in a xenograft mouse tumor model using MDA-MB-468 (Luciferase+) cell line in 5-week-old NMRI mice. When the tumor volume reached 1,000 mm^3, exeresis of the primary tumor was done to monitor predominantly metastasis initiation and progression. Compound (2) was administered everyday via intraperitoneal injection (25 mg/kg/d) during 4 weeks. Then, xenografted mice were sacrified and organs were imaged (FIGS. 9A and 9B).

MCF-7 cells = assay: Primary focus formation assay; type: cell-based; details: MCF-7, 3 weeks of treatment
Procedure: For primary focus formation assays, MCF-7 cells were plated at a density of 10^5 cells/well of a 6-well plate. Cells were allowed to reach confluency and were maintained on complete growth medium supplemented with indicated concentration of A4.1 (or compound (2)) or vehicle until focus formation occurred. Foci of transformed cells was quantitated after 21 days.
Malignant transformation of cells is typically associated with increased proliferation, loss of contact inhibition, acquisition of anchorage-independent growth potential, and the ability to form foci in culture cells. A focus formation assay was used to test whether (2) affects the clonogenic potential of breast cancer cells MCF-7. After 3 weeks of treatments, the cells's foci were fixed, stained and counted ([…]).

Rac = Rac activator-induced membrane ruffling (actin reorganization) in 3T3 fibroblasts; type: cell-based; details: 3T3 cells, compound added 1 h before Rac activation
From the text: as §1, with “FIGS. 1 to 3 relate to the inhibition of the Rac-induced cell functions by compound (2) (or A4.1). […] Ruffles are indicated by arrows (left panel). Percentages” for “Percentages”
(§5) cDNA coding for constitutive active Rac1 (Rac^V12-RFP) were transfected in NIH3T3 with jetPEI (Polyplus transfection) according to the manufacturer's instructions. After treatments, fibroblasts were fixed with 4% paraformaldehyde in PBS, permeabilized in PBS 0.5% Triton X-100, and incubated with 130 μg/mL of FITC-conjugated phalloidin (Sigma) to visualize F-actin. After staining, images were captured by a fluorescence microscope (Nikon). The actin cytoskeleton organization was analyzed to observe Rac1-dependent ruffle formation.

[4] = Chronic IP injections: body weight, glycemia, hepatic and renal functions; type: in vivo, mice; details: 25 mg/kg IP daily during 4 weeks
Procedure: FIGS. 6 to 8 relate to the effect of chronic IP injections of compound (2) on physiological parameters: body weight, glycemia, hepatic and renal functions.
as §4

fibroblast = assay: Cell adhesion assay using impedance technology (xCELLigence); type: cell-based; details: fibroblasts pre-treated with 10 μm
From the text: as §1, with “FIGS. 1 to 3 relate to the inhibition of the Rac-induced cell functions by compound (2) (or A4.1). […] Ruffles are indicated by arrows (left panel). Percentages” for “Percentages”
Cells (10000/well) were seeded in a 96 well plate microtiter xCELLigence assay plate (E-Plate) (ACEA Biosciences Inc.) and placed on the Real-time xCELLigence Cell Analyzer (Roche Applied Science) platform at 37° C. to measure the “cell index” every 5 min for a period of 6 hours. The cell index unit is defined as (Rn−Rb)/15. Rn is the cell electrode impedance of the well when it contains cells. Rb is the background impedance of the well with the media alone.

MDA-MB-468 = assay: Cancer cell invasion in 3D gel; type: cell-based; details: 10 μM, after 48 h
Procedure: as §2, §3

Rac^V12 = biological target: T1, Rac^V12 (Homo sapiens, UniProt P63000, G12V); assay: Ruffle formation and membrane location of constitutive active RFP-Rac^V12 in fibroblasts; type: cell-based
T1 construct: expressed in transfected cells; host or cells: NIH3T3
Procedure: as §5
Rac1 over activity is implicated in various steps of oncogenesis including initiation, progression, invasion, and metastasis. The ability of (2) to inhibit a constitutive active mutant of Rac1, Rac^V12 was evaluated. In control condition, expression of RFP-Rac^V12 in fibroblasts induces changes in actin cytoskeleton leading to ruffles formation (data not shown). This effect is prevented by (2) (10 μM).

RAC1 = RAC1 (Homo sapiens, UniProt P63000)

Row | bioavailability [2] [%] | IC50 (MCF-7 cells; Homo sapiens, MCF7, 504 h) [nM] | Ruffles formation induced by RFP-Rac^V12 (Rac^V12; 10 μM) | IC50 (RAC1) [nM] | Relative activity (NSC23766) (RAC1; compared with NSC23766) | Compound | Cell migration (cell speed) (3T3 cells) | Decrease of cell invasion compared to control [1] [%] | Metastases [3] | Focus diameter and focus numbers compared with control cells (MCF-7 cells) | Efficiency of Rac activator to induce ruffle / actin reorganization (Rac) | Efficiency of Rac activator to induce ruffle / actin reorganization (Rac; listed as A4.1) | Side effects after chronic injection [4] | Cell adhesion (fibroblast) | Decrease of cell invasion compared to control (MDA-MB-468) [%] | Location of Rac^V12 at the plasma membrane (Rac^V12)
1 | 81.5 | 2.3 | prevented |  |  | COc1ccc(OC)c(NS(=O)(=O)c2ccc(NC(=O)CCSc3ccc(C)cc3)cc2)c1 [Compound (2), N-(4-(N-(2,5-dimethoxyphenyl)sulfamoyl)phenyl)-3-(p-tolylthio)propanamide] | decreases cell migration; also recorded: higher inhibition | > 50 | decreases significantly bone, hepatic, uterine and ovarian metastases | smaller focus diameter as well as focus numbers | strongly decreased | blocks Rac activator-induced actin reorganization | no major side effects | decreases cell adhesion; also recorded: higher inhibition | > 50 | limits the location of Rac^V12 at the plasma membrane
2 |  |  |  | 0.1 | > | COc1ccc(OC)c(NS(=O)(=O)c2ccc(NC(=O)CCCc3ccc(C)cc3)cc2)c1 [(3), N-(4-(N-(2,5-dimethoxyphenyl)sulfamoyl)phenyl)-4-(p-tolyl) Butanamide] |  |  |  |  |  |  |  |  |  | 
3 |  |  |  |  |  | CCN(CC)CCCC(C)Nc1nc(C)cc(Nc2ccc3nc(C)cc(N)c3c2)n1 (stereo not shown) [NSC23766, reference compound] |  |  |  |  |  |  |  | slow down |  | 
